From PMC11211886 (Frontiers in Pharmacology, 2024)
Values joined by “and” are separate entries in the source; they are usually repeats but may differ in a detail not shown here. Equal values may be shown once. Read-outs that look alike come from different tables or passages of the source.

How the values were obtained:
CYP2D6 = target: T1, CYP2D6 (Homo sapiens, UniProt P10635); assay: Reversible CYP inhibition in HLM, CYP2D6 (dextromethorphan); format: in vitro ADME; conditions: for enzyme activity remaining: CYP2D6, HLM
T1 construct: tissue Life Technologies (Durham, NC, USA); host or cells: human liver microsomes
Procedure: The markers used to determine the activities of CYP isoforms were phenacetin O-deethylation for CYP1A2 (probe substrate: 50 µM phenacetin), bupropion hydroxylation for CYP2B6 (probe substrate: 70 µM bupropion), paclitaxel 6α-hydroxylation for CYP2C8 (probe substrate: 10 µM paclitaxel), diclofenac 4′-hydroxylation for CYP2C9 (probe substrate: 5 µM diclofenac), S-(+)-mephenytoin 4′-hydroxylation for CYP2C19 (probe substrate: 20 µM S-(+)-mephenytoin), dextromethorphan O-demethylation for CYP2D6 (probe substrate: 6 µM dextromethorphan), chlorzoxazone 6′-hydroxylation for CYP2E1 (probe substrate: 70 µM chlorzoxazone), and testosterone 6β-hydroxylation and midazolam 1′-hydroxylation for CYP3A4/5 (probe substrate: 45 µM testosterone and 5 µM midazolam). […] Alpha-naphthoflavone (0.04 µM), 2-phenyl-2-(1-piperidinyl)propane (5 µM), quercetin (1 µM), sulfaphenazole (0.5 µM), ticlopidine (4 µM), quinidine (0.2 µM), diethyldithiocarbamate (20 µM), and ketoconazole (0.05 µM) were used as positive inhibitors of CYP1A2, 2B6, 2C8, 2C9, 2C19, 2D6, 2E1, and 3A4, respectively. The vehicle control was prepared in the same composition as inhibitor solutions but free of inhibitors. The concentrations of probe substrates were close to Km values that were determined in-house and within the range recommended by the FDA ([Huang et al., 2007]). Reaction mixtures were incubated at 37°C for 5, 20, or 30 min, depending on the probe substrates of CYP isoforms. The reactions were terminated by adding cold acetonitrile containing IS, and the terminated incubation mixtures were centrifuged at 3,000 g for 10 min before LC-MS/MS analysis.

[1] = Whole blood-to-plasma partition, dog blood; format: in vitro ADME
Procedure: The whole blood and plasma samples were incubated at 37°C for up to 1 h. Serial samples (150 µL) were collected at different time points (0, 10, and 60 min) and transferred into new tubes. The whole blood samples were then centrifuged at 1700 g for 15 min to harvest plasma.

[2] = Tissue distribution in SD rats after oral dose; design: species or system SD rat; conditions: in vivo
Procedure: After blood collection, the rats were sacrificed, and 18 tissues, namely, brain, breast, skin, fat, testis, ovary, bladder, pancreas, skeletal muscle, heart, lung, kidney, liver, stomach, small intestine, colon, spleen, and spinal cord, were removed from the rats at designated time points. These tissues were washed with saline and dried with filter paper. […] (Cheongju-si, Korea). […] The weight of the collected samples was recorded. Samples were stored in a −20°C freezer until analysis.

CYP3A4/5 = assay: Time-dependent CYP inhibition in HLM, CYP3A4/5; format: in vitro ADME, human; conditions: 10 μM, 30 min pre-incubation with NADPH
Procedure: The procedure of time-dependent CYP inhibition was similar to that used for CYP reversible inhibition, as mentioned above, except that a pre-incubation step was added. […] Another appropriate volume of the NADPH-regenerating system and probe substrate were added to initiate the CYP isoform enzyme activity test step. For this step, the incubation period was 10 min, except for CYP2B6, CYP2C8, and CYP3A4/5 (probe substrate: midazolam), which was 3 min to make sure the reaction was under initial linear rates. After incubation for the designated time periods at 37°C, the ice-cold acetonitrile containing IS was added to quench the reaction. […] (Ainactivator/[…] represents the enzyme activity remaining due to the inhibition by the diluted inactivator in the enzyme activity test step, and (Ainactivator/[…] represents the remaining enzyme activity due to pre-incubation loss plus inhibition by the diluted inactivator in the enzyme activity test step.

CYP2B6 = conditions: male, human, 48 h
Procedure: […] […] […] Enzyme activity for each CYP isoform was reported as a fold change over vehicle control and the percent of positive control (detailed calculation in Supplementary 1.1). Hepatocytes were harvested with a lysis buffer from RNeasy 96 Kit (Qiagen Inc., Germantown, MD, USA) to isolate RNA, which was analyzed by real-time quantitative polymerase chain reaction (RT-PCR). […] Emax (the maximal observed induction) and EC50 (the concentration that supports half-maximal induction) were estimated by non-linear regression of fold increase in CYP mRNA expression versus concentration plots.
The fold of vehicle control and the percent of positive control were calculated with the formulas below:
Fold of vehicle control = CYPs activity of test compound (or positive control) treated sample / CYPs activity of vehicle control treated sample
% of positive control = [(fold change in treated sample)-1] / [(fold change in positive control)-1] × 100
Based on the enzyme activity, a minimum of 2-fold increase compared to vehicle control for the positive control and ≥40% of the positive control for the test article was considered as the cutoff for a positive signal in in vitro induction assay.

T1 sequence (P10635 whole entry): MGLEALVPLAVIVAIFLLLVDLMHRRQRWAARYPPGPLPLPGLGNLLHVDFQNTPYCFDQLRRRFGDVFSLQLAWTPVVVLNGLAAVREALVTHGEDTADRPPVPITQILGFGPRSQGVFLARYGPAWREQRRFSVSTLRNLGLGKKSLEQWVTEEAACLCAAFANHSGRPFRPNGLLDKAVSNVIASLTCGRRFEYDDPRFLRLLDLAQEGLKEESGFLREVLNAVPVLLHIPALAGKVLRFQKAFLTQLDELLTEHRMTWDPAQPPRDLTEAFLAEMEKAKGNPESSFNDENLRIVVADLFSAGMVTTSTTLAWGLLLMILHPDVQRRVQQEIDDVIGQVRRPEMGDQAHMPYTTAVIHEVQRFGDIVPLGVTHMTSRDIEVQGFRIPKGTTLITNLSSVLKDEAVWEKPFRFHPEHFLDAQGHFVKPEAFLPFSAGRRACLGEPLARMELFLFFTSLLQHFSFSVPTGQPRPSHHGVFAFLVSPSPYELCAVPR

Structure (SMILES): C[C@H](Nc1ncnc(N)c1C#N)c1cc2ncc(Cl)n2nc1-c1ccccc1 [Amdizalisib]
- enzyme activity remaining (CYP2D6; 0.08 μM): 103%
- enzyme activity remaining (CYP2D6; 0.4 μM): 103% and 107%
- enzyme activity remaining (CYP2D6; 2 μM): 104% and 98.0%
- enzyme activity remaining (CYP2D6; 10 μM): 98.0% and 98.6%
- enzyme activity remaining (CYP2D6; 50 μM): 80.0% and 84.5%
- IC50 (CYP2D6; HLM, reversible, without pre-incubation): > 50 µM
- RB ([1]; dog blood, 1 μM, 0 min): 1.01
- fuB ([1]; dog, 0 min, 1 µM): 10.9%
- fup ([1]; dog, 1 µM): 0.109
- RB ([1]; dog, 10 min, 1 µM): 0.874
- fuB ([1]; dog, 10 min, 1 µM): 12.5%
- RB ([1]; dog, 60 min, 1 µM): 0.968
- fuB ([1]; dog, 60 min, 1 µM): 11.3%
- half-life ([2]; SD, female rat, PO 5 mg/kg, pancreas): 3.38 h
- half-life ([2]; SD, male rat, PO 5 mg/kg, liver): 1.76 h
- Kp ([2]; both sexes, SD, rat, po, 5 mg/kg, exposure in the intestines versus plasma): 3 to 6
- AUC(0-t) ([2]; female, SD, rat, po, 5 mg/kg): 11400 ng·h/mL
- Cmax ([2]; female, SD, rat, po, 5 mg/kg): 993 ng/mL
- Kp ([2]; female, SD, rat, po, 5 mg/kg, female rat, PO 5 mg/kg, colon, read-out: AUC0-t ratio of tissue/plasma): 1.52
- Cmax ([2]; female, Sprague-Dawley, rat, po, 5 mg/kg): 6950 ng/g
- AUC(0-t) ([2]; male, SD, rat, po, 5 mg/kg): 1380 ng·h/mL
- Cmax ([2]; male, SD, rat, po, 5 mg/kg): 394 ng/mL
- Tmax ([2]; male, SD, rat, po, 5 mg/kg, Tmax): 1 h
- Kp ([2]; male, SD, rat, po, 5 mg/kg, male rat, PO 5 mg/kg, bladder, read-out: AUC0-t ratio of tissue/plasma): 1.08
- Kp ([2]; male, SD, rat, po, 5 mg/kg, male rat, PO 5 mg/kg, pancreas, read-out: AUC0-t ratio of tissue/plasma): 3.97
- Cmax ([2]; male, Sprague-Dawley, rat, po, 5 mg/kg): 5080 ng/g
- activity loss of CYP3A4/5 (CYP3A4/5; substrate midazolam): 16.9%
- activity loss of CYP3A4/5 (CYP3A4/5; substrate testosterone): 11.7%
- Enzyme activity Percent of PC (%) (CYP2B6; 1 µM): 2.60%
- Enzyme activity Percent of PC (%) (CYP2B6; 3 µM): 3.00%
- Enzyme activity Percent of PC (%) (CYP2B6; 10 µM): 3.10%
- Enzyme activity Percent of PC (%) (CYP2B6; 20 µM): -11.1%
- Enzyme activity Percent of PC (%) (CYP2B6; 30 µM): -13.3%
